Results: PMC9862597, “Anti-Colorectal Cancer Effects of a Novel Camptothecin Derivative PCC0208037 In Vitro and In Vivo” (Pharmaceuticals, 2022)

Key:
recombinant Topo I = target: T1, recombinant Topo I (Homo sapiens, UniProt P11387); assay: Topoisomerase I activity assay (DNA relaxation); format: biochemical; conditions: PCC0208037 100 and 10 nmol/L, SN-38 100 nmol/L, CPT-11 100 nmol/L; 30 min, 37 °C
T1 construct: purchased TopoGEN, Inc (Buena Vista, CO, USA) TG1018
T1 sequence (P11387 1-765): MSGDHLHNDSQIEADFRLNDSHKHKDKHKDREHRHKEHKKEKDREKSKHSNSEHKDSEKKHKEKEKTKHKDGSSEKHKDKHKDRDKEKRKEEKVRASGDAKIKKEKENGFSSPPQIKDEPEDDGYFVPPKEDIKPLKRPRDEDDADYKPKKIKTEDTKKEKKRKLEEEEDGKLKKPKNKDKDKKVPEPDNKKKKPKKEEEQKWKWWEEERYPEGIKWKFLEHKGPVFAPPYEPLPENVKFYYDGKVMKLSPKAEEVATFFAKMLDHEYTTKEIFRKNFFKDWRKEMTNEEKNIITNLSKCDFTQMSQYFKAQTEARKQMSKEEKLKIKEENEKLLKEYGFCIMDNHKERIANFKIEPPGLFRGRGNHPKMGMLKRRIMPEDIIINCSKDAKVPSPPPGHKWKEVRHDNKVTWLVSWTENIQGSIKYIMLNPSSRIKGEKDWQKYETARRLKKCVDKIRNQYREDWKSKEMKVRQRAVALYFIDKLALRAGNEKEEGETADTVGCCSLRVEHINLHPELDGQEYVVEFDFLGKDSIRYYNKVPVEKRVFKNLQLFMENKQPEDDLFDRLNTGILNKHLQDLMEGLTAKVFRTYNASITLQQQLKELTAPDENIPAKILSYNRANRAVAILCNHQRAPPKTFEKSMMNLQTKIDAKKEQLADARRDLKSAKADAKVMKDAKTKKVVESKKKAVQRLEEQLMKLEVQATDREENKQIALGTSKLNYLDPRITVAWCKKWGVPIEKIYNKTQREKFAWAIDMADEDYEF
Method: To determine whether PCC0208037 inhibited Topo I activity, a DNA relaxation assay was conducted. In this assay, supercoiled plasmid DNA was relaxed and nicked by recombinant Topo I, while no nicked DNA would be found when the Topo I enzyme was inhibited.
A Topoisomerase I Drug Screening Kit was used to detect the inhibitory activity of PCC0208037 against Topo I in the cell-free system. 1 IU Topo I and 250 ng of supercoiled plasmid DNA were pre-incubated with DMSO, PCC0208037 (100 nmol/L and 10 nmol/L), SN-38(100 nmol/L), or CPT (100 nmol/L) in a reaction buffer with a final volume of 20 μL and incubated for 30 min at 37 °C; then, the reaction was stopped by the addition of 2 ul of 10% SDS. Then, proteinase K was added to 50 ug/mL, incubated for 15 min at 37 °C, and 0.1 vol. of a loading buffer (0.25% bromophenol blue, 50% glycerol) was added. The supercoiled, relaxed, or nicked DNA was separated by 1% agarose gel in a 1 TAE (Tris-Acetate-EDTA) buffer. Ethidium bromide-stained agarose gel was photographed using Gel Doc XR.
Figure 4 Inhibition of Topo I activity by PCC0208037. […] Plasmid DNA was separated by an agarose gel and stained with ethidium bromide.

[1] = 0.25 h and 1 h after single i.v. injection
Method: Then, 0.25 h and 1 h after the injection, the colorectal and tumor tissue were removed, rinsed with saline, and blotted dry.

[2] = Pharmacokinetic study, single intravenous dose
Method: Blood samples were collected at 0.083 h, 0.25 h, 0.5 h, 1 h, 2 h, 4 h, 8 h, and 12 h after administration. Plasma was prepared after centrifugation at 6000× g for 5 min and then stored at −20 °C for further analysis.

LS180 cells [3] = assay: MTT cell viability assay, LS180; format: cell-based; conditions: Homo sapiens, LS180, 72 h
Method: (§1) Cell viability was assessed using the MTT assay, as previously reported. Briefly, colorectal cancer cells (LS180, HCT116, CT-26, and HT-29 cells) were plated onto 96-well plates at 3000 cells per well and incubated overnight. […] Control cells were treated with DMSO at a final concentration of 0.1%. Cells were cultured with the compounds or medium for 72 h. The cells were then treated with MTT. The medium was then decanted, and DMSO was added and shaken until the color reaction was complete. The […] were read using a Molecular Devices SpectraMax M5 (San Jose, CA, USA) at OD570 nm. The half maximal inhibitory concentration (IC50) was calculated.

HCT116 cells = assay: MTT cell viability assay, HCT116; format: cell-based; conditions: Homo sapiens, HCT-116, 72 h
Method: as §1

[4] = PCC0208037- and CPT-11-induced toxicity in mice; conditions: 50 mg/kg/day i.p. for four days
LS180 cells [5] = assay: Flow cytometry cell cycle and apoptosis assay; format: cell-based; conditions: LS180, 24, 48 and 72 h
Method: Cell cycle analysis and an Apoptosis Assessment were performed using flow cytometry. LS180 cells were seeded in 6-well plates at a density of 1 × 10^5 cells per well for 12 h, and then different concentrations of PCC0208037 were added for 24, 48, and 72 h, respectively. Cells were stained with PI- or PI/FITC-labeled annexin, and the effects of PCC0208037 on cell cycle progression and apoptosis were analyzed by flow cytometry.
Figure 5 PCC0208037 induced G2/M phase arrest and apoptosis in LS180 cells. (A) Cells were treated with multiple concentrations of PCC0208037 for 24, 48, and 72 h and then analyzed by flow cytometry with PI staining. (B). Cells were treated with multiple concentrations of PCC0208037 for 24, 48, and 72 h and then analyzed by flow cytometry with annexin VeFITC staining. The data were expressed as the mean ± SD (n = 3). * p < 0.05 as compared to the control.

[6] = BALB/c, mouse, in vivo, iv, 10.65 mg/kg
[7] = PCC0208037 in plasma, 10.65 mg/kg PCC0208037 i.v., n = 3

SMILES: CCc1c2c(nc3ccc(O)cc13)-c1cc3c(c(=O)n1C2)COC(=O)[C@@]3(CC)OC(=O)Nc1nc(=O)n([C@@H]2O[C@H](C)[C@@H](O)[C@H]2O)cc1F [PCC0208037]
- inhibition of Topo I activity (supercoiled plasmid DNA relaxation) (recombinant Topo I): dose-dependently increased the presence of supercoiled DNA
- concentration in the colorectal tissue compared with CPT-11 [1]: significantly lower than CPT-11
- Cmax [2, 6]: 137 µg/mL
- Tmax [2, 6]: 11.4 ± 4.2 min
- half-life [2, 6]: 70.2 ± 0.9 min
- AUCinf [2, 7]: 68,388.4 ± 17,991.1 H * ng/mL
- AUClast [2, 7]: 68,292.5 ± 18,078.2 H * ng/mL
- IC50 (LS180 cells [3]): 220 ± 60 nM
- IC50 (HCT116 cells): 2900 ± 610 nM
- colorectal tissue histomorphological examination (H&E) ([4]; colon after 7 days): A mild reduction of goblet cells and a mild infiltration of lymphocytes
- mortality ([4]; seven-day observation): No animal died
- recovery of body weight and food intake decrease ([4]; seven-day observation): began to recover on the 6th day onwards
- percentage of apoptotic cells (LS180 cells [5]; FITC annexin V staining): significantly increased the percentage of apoptotic cells
- ratio of cells in the G2/M phase (LS180 cells [5]; PI staining): significantly increased the ratio of the cells in the G2/M phase
